In article PMC3445262 (International immunopharmacology, 2011):
pEC50: −log10 of the molar value.

Experiments:
[1] = biological target: CB2 receptor mutant W5.43(194)Y (Homo sapiens, UniProt P34972, W194Y); assay type: binding; conditions: W5.43(194)Y vs CB2 WT
[2] = biological target: CB2 W194Y mutant receptor in HEK293 cells (Homo sapiens, UniProt P34972, W194Y); assay type: cell-based
[3] = biological target: CB2 W194A mutant receptor in HEK293 cells (Homo sapiens, UniProt P34972, W194A); assay type: cell-based
Chain of CB2 W194A mutant receptor in HEK293 cells (P34972 whole entry W194A): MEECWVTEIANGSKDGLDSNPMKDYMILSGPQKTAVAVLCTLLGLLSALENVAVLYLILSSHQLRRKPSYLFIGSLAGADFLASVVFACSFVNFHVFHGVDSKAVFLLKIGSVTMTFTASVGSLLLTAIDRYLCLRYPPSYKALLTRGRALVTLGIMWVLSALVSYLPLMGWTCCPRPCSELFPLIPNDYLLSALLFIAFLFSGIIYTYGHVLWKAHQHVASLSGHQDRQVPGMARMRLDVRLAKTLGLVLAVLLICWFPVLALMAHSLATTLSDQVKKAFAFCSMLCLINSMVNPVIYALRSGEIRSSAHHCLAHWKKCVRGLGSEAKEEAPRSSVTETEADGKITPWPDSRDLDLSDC

[4] = biological target: CB2 WT receptor in HEK293 cells (Homo sapiens, UniProt P34972); assay type: cell-based
Chain of CB2 WT receptor in HEK293 cells (P34972 whole entry): as the sequence (P34972 whole entry W194A) above, with A194W counted along it

[5] = biological target: CB2 W194F mutant receptor in HEK293 cells (Homo sapiens, UniProt P34972, W194F); assay type: cell-based
Chain of CB2 W194F mutant receptor in HEK293 cells (P34972 whole entry W194F): as the sequence (P34972 whole entry W194A) above, with A194F counted along it

CB1 W5.43(280)A [6] = conditions: cited from earlier work
CB1 W5.43(280)A [7] = conditions: cited from earlier work; remark: listed apart in the source

Chain of CB2 receptor mutant W5.43(194)Y (P34972 whole entry W194Y): as the sequence (P34972 whole entry W194A) above, with A194Y counted along it
Chain of CB2 W194Y mutant receptor in HEK293 cells (P34972 whole entry W194Y): as the sequence (P34972 whole entry W194A) above, with A194Y counted along it

With `CCCCCCC(C)(C)c1ccc([C@@H]2C[C@H](O)CC[C@H]2CCCO)c(O)c1` [CP55940] the “Reduction of binding affinity by W5.43(194)Y mutation compared with wild-type” value [1] was “no effect”.
In the case of SR144528, the “Reduction of binding affinity by W5.43(194)Y mutation compared with wild-type” value [1] was 5 fold.
`C=C[C@@]1(C)CC(=O)[C@]2(O)[C@@]3(C)[C@@H](O)CCC(C)(C)[C@@H]3[C@H](O)[C@H](OC(C)=O)[C@@]2(C)O1` [Forskolin, forskolin] showed a pEC50 [2] of 5.69, a pEC50 [3] of 5.62 and a pEC50 [4] of 5.88. The pEC50 [5] was 5.74.
In the case of `Cc1c(C(=O)c2cccc3ccccc23)c2cccc3c2n1[C@H](CN1CCOCC1)CO3` [WIN55212-2], the “Reduction of binding by CB1 W5.43(280)A mutation” value (CB1 W5.43(280)A [6]) is listed as 16.8 fold and the “Reduction of WIN55212-2 stimulated GTPγS binding by CB1 W5.43(280)A mutation” value (CB1 W5.43(280)A [7]) is listed as 245 fold.
